The values that follow come from patent US8378104B2 (OSI Pharmaceuticals, LLC, priority 2010, dated 2013).

Molecules are shown by their SMILES. Some results are limits rather than exact numbers.

One assay addresses T1, TAK1-TAB1 fusion protein (Homo sapiens, UniProt O43318).
T1 construct: purchased Carna
T1 sequence (O43318 with tags, fused parts or gaps limits assumed): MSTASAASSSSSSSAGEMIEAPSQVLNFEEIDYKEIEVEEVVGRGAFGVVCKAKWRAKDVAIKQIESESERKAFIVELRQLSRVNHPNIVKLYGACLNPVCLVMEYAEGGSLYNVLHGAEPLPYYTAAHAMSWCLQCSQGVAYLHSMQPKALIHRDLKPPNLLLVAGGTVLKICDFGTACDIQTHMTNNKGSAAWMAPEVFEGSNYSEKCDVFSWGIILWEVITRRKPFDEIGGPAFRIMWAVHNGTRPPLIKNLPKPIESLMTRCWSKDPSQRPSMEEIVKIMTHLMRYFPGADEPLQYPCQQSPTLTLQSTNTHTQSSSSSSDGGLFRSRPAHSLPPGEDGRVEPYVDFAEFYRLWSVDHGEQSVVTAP
In words: TAK1 biochemical assay (AlphaScreen, GST-MAP2K7 substrate). The following applies: TAK1-TAB1 fusion protein, GST-MAP2K7 substrate; read-out: mean TAK1 IC50 (Col. A).

The subject of the next assay is pJNK in HCT-116 cells. Kind of assay: Phospho-JNK (Thr183/Tyr185) Meso Scale ELISA assay, TNFα-stimulated HCT-116 cells. In kind it is cell-based. As to conditions: Homo sapiens, read-out: mean HCT-116 pJNK ELISA IC50 (Col. B). Put shortly:
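HCT-116 cells in 1% FCS medium were pretreated with compound for 4 hrs at 37° C, then stimulated with TNFα at 10 ng/mL final for 10 minutes. Lysates were taken in ice-cold lysis buffer with phosphatase and protease inhibitors, and phospho-JNK (Thr183/Tyr185) was measured by Meso Scale ELISA.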

Another assay relates to p-p38 in HCT-116 cells. In words: Phospho-p38 Meso Scale ELISA assay, TNFα-stimulated HCT-116 cells. In kind it is cell-based. The following applies: Homo sapiens, read-out: mean HCT-116 p-p38 ELISA IC50 (Col. C). The essentials: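 HCT-116 cells in 1% FCS medium for 2 h, then compound for 4 h at 37° C, then TNFα at 10 ng/mL final for 10 min. Lysates captured overnight at 4° C and phospho-p38 quantified by Meso Scale electrochemiluminescence ELISA.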

In the case of `CC(=O)N1CCC(n2cc(-c3cnc(N)c4oc(-c5cccc6cnsc56)cc34)cn2)CC1` [Example 226, 1-(4-{4-[7-amino-2-(1,2-benzothiazol-7-yl)furo[2,3-c]pyridin-4-yl]-1H-pyrazol-1-yl}piperidin-1-yl)ethanone], the IC50 on TAK1-TAB1 fusion protein, in the assay with pJNK in HCT-116 cells and in the assay on p-p38 in HCT-116 cells was less than 100 nM throughout.
For `Nc1ncc(-c2cnn(C3CC(=O)C3)c2)c2cc(-c3csc4cnccc34)oc12` [Example 315, 3-[4-(7-amino-2-thieno[2,3-c]pyridin-3-yl-furo[2,3-c]pyridin-4-yl)-pyrazol-1-yl]-cyclobutanone], the IC50 on TAK1-TAB1 fusion protein, in the assay on pJNK in HCT-116 cells and in the assay with p-p38 in HCT-116 cells was 100 to 1000 nM throughout.
On to `CCSc1ccccc1-c1cc2c(-c3cnn(C4CCN(C(C)=O)CC4)c3)cnc(N)c2o1` [Example 217], for which the IC50 on TAK1-TAB1 fusion protein, in the assay on pJNK in HCT-116 cells and in the assay on p-p38 in HCT-116 cells was 100 to 1000 nM throughout.
Regarding `Nc1ncc(-c2cnn([C@H]3CC[C@H](O)CC3)c2)c2cc(-c3csc4cnccc34)oc12` [Example 233, trans-4-{4-[7-amino-2-(thieno[2,3-c]pyridin-3-yl)furo[2,3-c]pyridin-4-yl]-1H-pyrazol-1-yl}cyclohexanol], the IC50 on TAK1-TAB1 fusion protein, in the assay with pJNK in HCT-116 cells and in the assay with p-p38 in HCT-116 cells was less than 100 nM throughout.
Regarding `CC(C)C(=O)N1CCC(n2cc(-c3cnc(N)c4oc(-c5cccc6cnccc56)cc34)cn2)CC1` [Example 51, 1-(4-{4-[7-amino-2-(isoquinolin-5-yl)furo[2,3-c]pyridin-4-yl]-1H-pyrazol-1-yl}piperidin-1-yl)-2-methylpropan-1-one], the results for the IC50 at TAK1-TAB1 fusion protein, with pJNK in HCT-116 cells and with p-p38 in HCT-116 cells were 100 to 1000 nM, less than 100 nM and less than 100 nM, respectively.
Take `Nc1ncc(-c2cnn(C3CCNCC3)c2)c2cc(-c3cccc4cnsc34)oc12` [Example 323, 2-benzo[d]isothiazol-7-yl-4-(1-piperidin-4-yl-1H-pyrazol-4-yl)-furo[2,3-c]pyridin-7-ylamine]: the IC50 on TAK1-TAB1 fusion protein was less than 100 nM; in the assay with pJNK in HCT-116 cells, 1000 to 10000 nM; in the assay on p-p38 in HCT-116 cells it was 100 to 1000 nM.
Take `CC(=O)N1CCC(n2cc(-c3cnc(N)c4oc(-c5ccc(O)cc5)cc34)cn2)CC1` [Example 120, 1-(4-{4-[7-amino-2-(4-hydroxyphenyl)furo[2,3-c]pyridin-4-yl]-1H-pyrazol-1-yl}piperidin-1-yl)ethanone]: the IC50 on TAK1-TAB1 fusion protein, in the assay on pJNK in HCT-116 cells and with p-p38 in HCT-116 cells was 100 to 1000 nM each time.
Take `CC(=O)N1CCC(n2cc(-c3cnc(N)c4oc(-c5cccc(O)c5)cc34)cn2)CC1` [Example 132, 1-(4-{4-[7-amino-2-(3-hydroxyphenyl)furo[2,3-c]pyridin-4-yl]-1H-pyrazol-1-yl}piperidin-1-yl)ethanone]: the IC50 at TAK1-TAB1 fusion protein is less than 100 nM; with pJNK in HCT-116 cells it was 100 to 1000 nM; in the assay on p-p38 in HCT-116 cells, 100 to 1000 nM.
For `Nc1ncc(-c2cnn(C3CCNCC3)c2)c2cc(-c3cccc4cnccc34)oc12` [Example 33, 2-(isoquinolin-5-yl)-4-[1-(piperidin-4-yl)-1H-pyrazol-4-yl]furo[2,3-c]pyridine-7-amine], the IC50 on TAK1-TAB1 fusion protein, in the assay with pJNK in HCT-116 cells and with p-p38 in HCT-116 cells was 100 to 1000 nM each time.
On to `CNc1ncc(-c2cnn([C@H]3CC[C@H](O)CC3)c2)c2cc(-c3csc4cnccc34)oc12` [Example 281, trans-4-{4-[7-(methylamino)-2-(thieno[2,3-c]pyridin-3-yl)furo[2,3-c]pyridin-4-yl]-1H-pyrazol-1-yl}cyclohexanol], for which the IC50 at TAK1-TAB1 fusion protein, in the assay on pJNK in HCT-116 cells and with p-p38 in HCT-116 cells was less than 100 nM throughout.
Take `CC(=O)N1CCC(n2cc(-c3cnc(N)c4oc(-c5ccc6c(c5)OCO6)cc34)cn2)CC1` [Example 117, 1-(4-{4-[7-amino-2-(1,3-benzodioxol-5-yl)furo[2,3-c]pyridin-4-yl]-1H-pyrazol-1-yl}piperidin-1-yl)ethanone]: the IC50 on TAK1-TAB1 fusion protein, with pJNK in HCT-116 cells and in the assay on p-p38 in HCT-116 cells was 1000 to 10000 nM in each case.
With `Nc1ncc(-c2cnn(C3CCN(C(=O)C4CC4)CC3)c2)c2cc(-c3cccc4cnccc34)oc12` [Example 52, (4-{4-[7-amino-2-(isoquinolin-5-yl)furo[2,3-c]pyridin-4-yl]-1H-pyrazol-1-yl}piperidin-1-yl)(cyclopropyl)methanone], the IC50 at TAK1-TAB1 fusion protein, in the assay on pJNK in HCT-116 cells and in the assay on p-p38 in HCT-116 cells was 100 to 1000 nM in each case.
Take `CC(=O)N1CCC(n2cc(-c3cnc(N)c4oc(-c5ccc(O)cc5C)cc34)cn2)CC1` [Example 135, 1-(4-{4-[7-amino-2-(4-hydroxy-2-methylphenyl)furo[2,3-c]pyridin-4-yl]-1H-pyrazol-1-yl}piperidin-1-yl)ethanone]: the IC50 at TAK1-TAB1 fusion protein, in the assay on pJNK in HCT-116 cells and in the assay on p-p38 in HCT-116 cells was 100 to 1000 nM each time.
`CC(=O)N1CCC(n2cc(-c3cnc(N)c4oc(-c5ccc6[nH]ccc6c5)cc34)cn2)CC1` [Example 92, 1-(4-{4-[7-amino-2-(1H-indol-5-yl)furo[2,3-c]pyridin-4-yl]-1H-pyrazol-1-yl}piperidin-1-yl)ethanone]: the figures for the IC50 at TAK1-TAB1 fusion protein, in the assay on pJNK in HCT-116 cells and in the assay with p-p38 in HCT-116 cells were 1000 to 10000 nM, 100 to 1000 nM and 100 to 1000 nM, respectively.
`CC(=O)N1CCC(n2cc(-c3cnc(N)c4oc(-c5ccc6[nH]nc(C#N)c6c5)cc34)cn2)CC1` [Example 236, 5-{4-[1-(1-acetylpiperidin-4-yl)-1H-pyrazol-4-yl]-7-aminofuro[2,3-c]pyridin-2-yl}-1H-indazole-3-carbonitrile]: the values for the IC50 on TAK1-TAB1 fusion protein, with pJNK in HCT-116 cells and with p-p38 in HCT-116 cells were 100 to 1000 nM, 1000 to 10000 nM and more than 10000 nM, respectively.
